The experiment deals with SMYD3 (Homo sapiens (Human), UniProt Q9H7B4). Description: SMYD3 biochemical assay (SMYD3 enzyme assay on MEKK2 protein substrate, 3H-SAM scintillation proximity assay). Particulars: read-out: SMYD3 Biochem IC50. Summed up: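 Native full-length human SMYD3, expressed in E. coli, was preincubated with compound for 30 min at room temperature in 25 mM Tris-Cl pH 8.0, 1 mM TCEP, 0.005% BSG and 0.005% Tween 20. ³H-SAM plus GST-MEKK2 then started the reaction. It was stopped with unlabeled SAM (100 uM final), and methylated MEKK2 was read by SPA.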
Sequence of SMYD3 (Q9H7B4 whole entry): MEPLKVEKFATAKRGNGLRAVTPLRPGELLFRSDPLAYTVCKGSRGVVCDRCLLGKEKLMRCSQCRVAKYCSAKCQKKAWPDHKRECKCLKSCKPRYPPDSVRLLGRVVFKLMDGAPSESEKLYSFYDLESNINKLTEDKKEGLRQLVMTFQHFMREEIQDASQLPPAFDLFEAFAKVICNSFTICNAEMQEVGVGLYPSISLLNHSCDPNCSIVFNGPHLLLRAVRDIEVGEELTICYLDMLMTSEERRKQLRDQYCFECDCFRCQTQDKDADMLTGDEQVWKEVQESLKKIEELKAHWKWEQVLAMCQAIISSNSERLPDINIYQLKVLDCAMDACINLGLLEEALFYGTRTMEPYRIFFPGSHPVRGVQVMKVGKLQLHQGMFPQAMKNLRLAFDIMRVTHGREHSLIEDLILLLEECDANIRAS

On to `N[C@H]1CC[C@H](NC(=O)c2cccc(F)n2)CC1` [compound 389, N-((1r,4r)-4-aminocyclohexyl)-6-fluoropicolinamide], for which the IC50 (as a rule, the point on the concentration scale where inhibition reaches its midpoint) is over 100 µM. As to `NCCC(=O)N[C@H]1CC[C@H](NC(=O)c2ccncc2F)CC1` [compound 390, N-((1r,4r)-4-(3-aminopropanamido)cyclohexyl)-3-fluoroisonicotinamide], the IC50 was over 100 µM. The figure for `NCCC(=O)N[C@H]1CC[C@H](NC(=O)c2c[nH]c3ccccc23)CC1` [compound 391, N-((1r,4r)-4-(3-aminopropanamido)cyclohexyl)-1H-indole-3-carboxamide] is over 100 µM. As for `Cc1cc(C(=O)NC(C)C2CCN(C(=O)[C@H](C)N)CC2)ccn1` (stereo partly drawn) [compound 392, N-(1-(1-(L-alanyl)piperidin-4-yl)ethyl)-2-methylisonicotinamide], the IC50 was over 100 µM. Then `Cc1cc(C(=O)N[C@H]2CC[C@H](NC(=O)CCN)CC2)ccn1` [compound 393, N-((1r,4r)-4-(3-aminopropanamido)cyclohexyl)-2-methylisonicotinamide], with over 100 µM; and `Cc1cc(C(=O)N[C@H]2CC[C@H](N)CC2)ccn1` [compound 394, N-((1r,4r)-4-aminocyclohexyl)-2-methylisonicotinamide], with over 100 µM; and `CC(NC(=O)c1nc2ccccc2s1)C1CCN(C(=O)[C@H](C)N)CC1` (stereo partly drawn) [compound 395, N-(1-(1-(L-alanyl)piperidin-4-yl)ethyl)benzo[d]thiazole-2-carboxamide], with over 100 µM. For the compound `Cc1cnc(C(=O)NC(C)C2CCN(C(=O)[C@H](C)N)CC2)s1` (stereo partly drawn) [compound 396, N-(1-(1-(L-alanyl)piperidin-4-yl)ethyl)-5-methylthiazole-2-carboxamide], the IC50 is 10.6 µM.

Turning to `Cc1cnc(C(=O)N[C@H]2CC[C@H](NC(=O)CCN)CC2)s1` [compound 397, N-((1r,4r)-4-(3-aminopropanamido)cyclohexyl)-5-methylthiazole-2-carboxamide], the IC50 stood at 27.4 µM. `Cc1cnc(C(=O)N[C@H]2CC[C@H](N)CC2)s1` [compound 398, N-((1r,4r)-4-aminocyclohexyl)-5-methylthiazole-2-carboxamide]: the IC50 is over 100 µM.

Take `CC(NC(=O)c1cccc2c1CC(=O)N2)C1CCN(C(=O)[C@H](C)N)CC1` (stereo partly drawn) [compound 399, N-(1-(1-(L-alanyl)piperidin-4-yl)ethyl)-2-oxoindoline-4-carboxamide]: the IC50 was over 100 µM. As to `N[C@H]1CC[C@H](NC(=O)c2cccc3c2CC(=O)N3)CC1` [compound 400, N-((1r,4r)-4-aminocyclohexyl)-2-oxoindoline-4-carboxamide], the IC50 is over 100 µM. Turning to `Cc1c(C(=O)N[C@H]2CC[C@H](NC(=O)CCN)CC2)nnn1-c1ccccc1` [compound 401, N-((1r,4r)-4-(3-aminopropanamido)cyclohexyl)-5-methyl-1-phenyl-1H-1,2,3-triazole-4-carboxamide], the IC50 is over 100 µM. For the compound `Cc1cc(C)c(C(=O)N[C@H]2CC[C@H](NC(=O)CCN)CC2)c(=O)[nH]1` [compound 402, N-((1r,4r)-4-(3-aminopropanamido)cyclohexyl)-4,6-dimethyl-2-oxo-1,2-dihydropyridine-3-carboxamide], the IC50 is over 100 µM.

Take `CC1=NN(c2ccc(C(=O)N[C@H]3CC[C@H](N)CC3)cc2)C(=O)C1` [compound 403, N-((1r,4r)-4-aminocyclohexyl)-4-(3-methyl-5-oxo-4,5-dihydro-1H-pyrazol-1-yl)benzamide]: the 50% inhibitory concentration (IC50) was over 100 µM.

Regarding `NCCC(=O)N[C@H]1CC[C@H](NC(=O)c2cc(O)c3ccccc3n2)CC1` [compound 404, N-((1r,4r)-4-(3-aminopropanamido)cyclohexyl)-4-hydroxyquinoline-2-carboxamide], the IC50 was over 100 µM. Take `N[C@H]1CC[C@H](NC(=O)c2cnc3ccccc3n2)CC1` [compound 405, N-((1r,4r)-4-aminocyclohexyl)quinoxaline-2-carboxamide]: the IC50 is over 100 µM. On to `CC(NC(=O)Cc1c[nH]c2cccnc12)C1CCN(C(=O)[C@H](C)N)CC1` (stereo partly drawn) [compound 406, N-(1-(1-(L-alanyl)piperidin-4-yl)ethyl)-2-(1H-pyrrolo[3,2-b]pyridin-3-yl)acetamide], for which the IC50 is over 100 µM.

For `NCCC(=O)N[C@H]1CC[C@H](NC(=O)Cc2c[nH]c3cccnc23)CC1` [compound 407, N-((1r,4r)-4-(2-(1H-pyrrolo[3,2-b]pyridin-3-yl)acetamido)cyclohexyl)-3-aminopropanamide], the IC50 was over 100 µM. The figure for `N[C@H]1CC[C@H](NC(=O)Cc2c[nH]c3cccnc23)CC1` [compound 408, N-((1r,4r)-4-aminocyclohexyl)-2-(1H-pyrrolo[3,2-b]pyridin-3-yl)acetamide] is over 100 µM; for `CC(NC(=O)c1cccnc1O)C1CCN(C(=O)[C@H](C)N)CC1` (stereo partly drawn) [compound 409, N-(1-(1-(L-alanyl)piperidin-4-yl)ethyl)-2-hydroxynicotinamide] it is 70.4 µM; for `NCCC(=O)N[C@H]1CC[C@H](NC(=O)c2cccnc2O)CC1` [compound 410, N-((1r,4r)-4-(3-aminopropanamido)cyclohexyl)-2-hydroxynicotinamide] it is 44.5 µM. Turning to `N[C@H]1CC[C@H](NC(=O)c2cccnc2O)CC1` [compound 411, N-((1r,4r)-4-aminocyclohexyl)-2-hydroxynicotinamide], the IC50 was over 100 µM. The figure for `Cn1ccnc1C(=O)N[C@H]1CC[C@H](NC(=O)CCN)CC1` [compound 412, N-((1r,4r)-4-(3-aminopropanamido)cyclohexyl)-1-methyl-1H-imidazole-2-carboxamide] is over 100 µM. As to `CC(NC(=O)c1ccnn1C)C1CCN(C(=O)[C@H](C)N)CC1` (stereo partly drawn) [compound 413, N-(l-(1-(L-alanyl)piperidin-4-yl)ethyl)-1-methyl-1H-pyrazole-5-carboxamide], the IC50 was over 100 µM. Then `Cn1nccc1C(=O)N[C@H]1CC[C@H](NC(=O)CCN)CC1` [compound 414, N-((1r,4r)-4-(3-aminopropanamido)cyclohexyl)-1-methyl-1H-pyrazole-5-carboxamide], with over 100 µM.

For `Cn1nccc1C(=O)N[C@H]1CC[C@H](N)CC1` [compound 415, N-((1r,4r)-4-aminocyclohexyl)-1-methyl-1H-pyrazole-5-carboxamide], the IC50 was over 100 µM. With `NCCC(=O)N[C@H]1CC[C@H](NC(=O)C2C[C@@H]3C=C[C@H]2C3)CC1` (stereo partly drawn) [compound 416, (1R,4R)-N-((1r,4R)-4-(3-aminopropanamido)cyclohexyl)bicyclo[2.2.1]hept-5-ene-2-carboxamide], the IC50 is over 100 µM.

Regarding `N[C@H]1CC[C@H](NC(=O)C2C[C@@H]3C=C[C@H]2C3)CC1` (stereo partly drawn) [compound 417, (1r,4r)-N-((1r,4R)-4-aminocyclohexyl)bicyclo[2.2.1]hept-5-ene-2-carboxamide], the IC50 is over 100 µM. `CC(NC(=O)c1cccc(N)n1)C1CCN(C(=O)[C@H](C)N)CC1` (stereo partly drawn) [compound 418, N-(1-(1-(L-alanyl)piperidin-4-yl)ethyl)-6-aminopicolinamide]: the IC50 was over 100 µM. For `CC(NC(=O)c1cncnc1N)C1CCN(C(=O)[C@H](C)N)CC1` (stereo partly drawn) [compound 419, N-(1-(1-(L-alanyl)piperidin-4-yl)ethyl)-4-aminopyrimidine-5-carboxamide], the IC50 is over 100 µM. As to `NCCC(=O)N[C@H]1CC[C@H](NC(=O)c2cncnc2N)CC1` [compound 420, 4-amino-N-((1r,4r)-4-(3-aminopropanamido)cyclohexyl)pyrimidine-5-carboxamide], the IC50 is over 100 µM. Then `Nc1ncncc1C(=O)N[C@H]1CC[C@H](N)CC1` [compound 421, 4-amino-N-((1r,4r)-4-aminocyclohexyl)pyrimidine-5-carboxamide], with over 100 µM; and `NCCC(=O)N[C@H]1CC[C@H](NC(=O)c2cccc(F)n2)CC1` [compound 422, N-((1r,4r)-4-(3-aminopropanamido)cyclohexyl)-6-fluoropicolinamide], with over 100 µM. Then `N[C@H]1CC[C@H](NC(=O)c2ccc(O)cn2)CC1` [compound 423, N-((1r,4r)-4-aminocyclohexyl)-5-hydroxypicolinamide], with over 100 µM; and `N[C@H]1CC[C@H](NC(=O)C2=NNC(=O)CC2)CC1` [compound 424, N-((1r,4r)-4-aminocyclohexyl)-6-oxo-1,4,5,6-tetrahydropyridazine-3-carboxamide], with over 100 µM; and `NCCC(=O)N[C@H]1CC[C@H](NC(=O)c2n[nH]c3ccccc23)CC1` [compound 425, N-((1r,4r)-4-(3-aminopropanamido)cyclohexyl)-1H-indazole-3-carboxamide], with 37.5 µM.

For the compound `N[C@H]1CC[C@H](NC(=O)Cn2ccnc2)CC1` [compound 426, N-((1r,4r)-4-aminocyclohexyl)-2-(1H-imidazol-1-yl)acetamide], the IC50 is over 100 µM. `NCCC(=O)N[C@H]1CC[C@H](NC(=O)c2nc3ccccc3s2)CC1` [compound 427, N-((1r,4r)-4-(3-aminopropanamido)cyclohexyl)benzo[d]thiazole-2-carboxamide]: the IC50 was over 100 µM. Take `N[C@H]1CC[C@H](C(=O)Nc2ccc3c(c2)CC(=O)N3)CC1` [compound 428, (1r,4r)-4-amino-N-(2-oxoindolin-5-yl)cyclohexane-1-carboxamide]: the IC50 was 30.6 µM. As to `N[C@H]1CC[C@H](NS(=O)(=O)c2ccc3c(c2)CC(=O)N3)CC1` [compound 429, N-((1r,4r)-4-aminocyclohexyl)-2-oxoindoline-5-sulfonamide], the IC50 worked out at 14.5 µM.

Regarding `NCCC(=O)N[C@H]1CC[C@H](NC(=O)c2cccc3c2CC(=O)N3)CC1` [compound 430, N-((1r,4r)-4-(3-aminopropanamido)cyclohexyl)-2-oxoindoline-4-carboxamide], the IC50 is over 100 µM.
